Results: patent US6914160B1, “Oxytocin inhibitors” (Pfizer Inc, priority 2002, dated 2005)

Target: T1, Oxytocin Receptor (Homo sapiens, UniProt P30559)
T1 construct: expressed in transfected cells; host or cells: CHO cells (membrane preparation)
T1 sequence (P30559 1-389): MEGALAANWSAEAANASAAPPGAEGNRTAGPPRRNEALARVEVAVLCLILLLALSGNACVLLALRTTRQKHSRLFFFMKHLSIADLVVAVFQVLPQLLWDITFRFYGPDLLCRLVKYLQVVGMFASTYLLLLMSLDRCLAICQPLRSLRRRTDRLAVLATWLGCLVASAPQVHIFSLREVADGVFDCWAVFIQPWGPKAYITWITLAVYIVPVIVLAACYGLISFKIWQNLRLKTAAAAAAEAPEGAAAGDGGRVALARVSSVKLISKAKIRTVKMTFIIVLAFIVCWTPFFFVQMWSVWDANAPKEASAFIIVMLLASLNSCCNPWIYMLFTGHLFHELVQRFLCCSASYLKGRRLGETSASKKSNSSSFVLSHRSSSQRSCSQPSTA
Test: Oxytocin Receptor Ligand Binding IC50 Assay (125I-OVTA SPA, CHO cell membranes)
Procedure: A. Oxytocin Receptor Ligand Binding IC50 Assay
• ii) Compound Dilution (Final concentration of 10 μM in the assay) • a) HTA stock compounds at 4 mM in 100% DMSO • b) Dilute compounds to 200 μM in dH2O. • c) Further dilute compounds to 100 μM in 100 mM Tris-HCl, pH 7.8, 20 mM MgCl2. This gives final concentrations of 2.5% DMSO, 50 mM Tris-HCl, pH 7.8, 10 mM MgCl2. • d) Using the diluted stock, prepare 1:2 dilutions over 10 points in 50 mM Tris-HCl, pH 7.8, 10 mM MgCl2, 2.5% DMSO with the TECAN Genesis. • e) Dispense 10 μl of the compound into a 384 well Optiplate according to the plate layout required for analysis by ECADA leaving space for the standard (arg^8)-vasotocin IC50. […] Protein concentrations are then measured and the membrane suspension is finally frozen in aliquots at a minimum of 5 mg/ml at −80° C. vi) Assay • Membranes are thawed on ice before diluting to 1 mg/ml in assay buffer. […] A 5 μl sample is then counted in duplicate using liquid scintillation counting (protocol 61 on Wallac Counter) and the concentration of the ligand is calculated (see example below). […] Using the measured concentration, the ^125I-OVTA is diluted to 0.3 nM in assay buffer. […]

Structure (SMILES) | Ki
COc1cccc(C(C(N)=O)N(Cc2ccc(C)cc2)C(=O)c2c(C)cc(C)nc2N)c1 (single isomer, unassigned) [Example 258, (R or S)-2-Amino-N-[carbamoyl-[(3-methoxyphenyl)-methyl]-4,6-dimethyl-N-(4-methyl-benzyl)-nicotinamide] | 9.4 nM
Cc1ccc(CN(C(=O)c2c(C)cc(C)nc2N)C(C(N)=O)c2ccc3c(c2)OCCO3)cc1 (centres unmarked) [Example 257, 2-Amino-N-[carbamoyl-(2,3-dihydro-benzo[1.4]dioxin-6-yl)-methyl]-4,6-dimethyl-N-(4-methyl-benzyl)-nicotinamide] | 9.4 nM
